From US20020187977A1, “Methods for restoring cognitive function following systemic stress” (priority 2001, published 2002) come the findings set out here.

Series [1] is described as follows: Preliminary study of oral bioavailability in four volunteers. The conditions noted are these: humans. The class given is in vivo.
A short description of series [2]: Phase I clinical trials, plasma concentration after oral administration. The class given is in vivo, human. The settings on record: oral administration of the 20 mg/day dose. On the procedure:
Fourteen healthy young volunteers were orally administered 20 mg/day of compound 2 for 28 days in two Phase I clinical trials. 34 patients with mild to moderate cognitive disturbance were orally administered doses of up to 30 mg/day of compound 2 for 28 days.
After oral administration of the 20 mg/day dose, peak plasma concentrations of 25-38 ng/mL were observed 15-30 minutes after dosing.

Series [3] concerns patients with cognitive disturbances secondary to cerebrovascular and traumatic brain injury. The experiment in a line: Four-week open-label Phase II clinical trial of efficacy (MMSE, OCS, CCSE). The class given is in vivo, human. The conditions noted are these: 10 mg orally t.i.d. for four weeks, 20 patients with mild cognitive disturbance. As for the experimental part: The efficacy of 10 mg of compound 2 administered orally t.i.d. was investigated in a four-week open-label Phase II clinical trial at two centers. A total of 20 patients with cognitive disturbances secondary to cerebrovascular and traumatic brain injury were orally administered compound 2 during a Phase II clinical trial at a dose of 10 mg t.i.d. for a period of four weeks. At study entry, patients fulfilled specific criteria for mild cognitive disturbance.
Improvement on several tests, including the Mini Mental State Evaluation (MMSE) (Folstein et al., Psychiatric Research, 12, 189-198 (1975)), the Overall Clinical Impression Scale (OCS), which is a system developed by the National Institute of Mental Health: 12-CGI Clinical Global Impression ECDEU Assessment Manual for Psychopharmacology, E. Guyo, ed., Rockville Md., (217-222) (1976), and the Cognitive Capacity Screening Exam (CCSE) (Jacobs et al., Annals of Internal Medicine, 86, 40-46 (1977).

Square brackets hold non-standard residues; d marks the D form. Peptide text beside a SMILES is read from it. * marks the point of attachment. ξ: configuration not given here. PhAc = O=C(Cc1ccccc1)*; ξP = O=C(O)C1CCCN1

On to `CCOC(=O)CNC(=O)C1CCCN1C(=O)Cc1ccccc1` (stereo not shown) [compound 2] (PhAc-[ξP]-Gly-OEt), for which the oral bioavailability result in series [1] is on record as “orally bioavailable”. Also, in series [2], the peak plasma concentrations lay in the range of 25 to 38 ng/mL and the “time of peak plasma concentrations after dosing” value lay within 15 to 30 min. Also, the “treated patients who met the definition of efficacy response (statistically measured improvement in one or more of the tests by the end of the study)” value in series [3] was “over 75%”.
